Counter-ions that a name gives are not always drawn. Like-named read-outs stand apart in the source and are kept apart here.
Key:
[1] = test system: Digitaria Sanguinalis (DIGSA); experiment: Glass house adjuvant test with mesotrione, weed kill; assay type: in vivo; settings: mesotrione 45 g/ha + adjuvant 0.2% v/v in spray-tank, mean (standard deviation), 3 replicates
[2] = Water solubility of solvents at 25° C. (saturated solution, chromatographic analysis); assay type: physicochemical
Method: Typically, solvents which have aqueous solubilities of about (or at least) 0.1% w/w [at the relevant temperature] can dissolve appreciably in agrochemical spray tanks under normal dilution conditions [for example, temperatures of from just above freezing to 35° C.]. […] Solvents such as acetophenone are normally formulated with an oil of much lower water solubility. […] Table 2 provides water solubilities for a number of solvents at 25° C. Saturated solutions of each solvent in deionised water were prepared by leaving excess solvent in contact with water for a period of at least two weeks. After this time a sample of the water was analysed chromatographically to determine the concentration of solvent present.

[3] = test system: Avena Fatua (AVEFA); experiment: Glass house adjuvant test with pinoxaden, weed kill; assay type: in vivo; settings: pinoxaden 7.5 g/ha + adjuvant 0.2% by volume in spray-tank, mean (standard deviation), 3 replicates
Method: (§1) The weed species Setaria Viridis (SETVI), Lolium Perenne (LOLPE), Avena Fatua (AVEFA) and Alopecurus Myosuroides (ALOMY) were grown under glass house conditions and sprayed with the herbicide pinoxaden at a rate of 7.5 grams of pesticide per hectare. Weeds were treated with pinoxaden in the absence of (E)-but-2-enedioic acid dibutyl ester (as a control) and also with (E)-but-2-enedioic acid dibutyl ester added to the spray-tank at a concentration of 0.2% by volume. After both 14 and 21 days the efficacy of the herbicide was assessed based on the percentage of the weeds that had been killed. Three replicates were used in all cases. The average percentage of weeds killed is quoted in Table 5 for each weed species either with the adjuvant or without (control). Results have been averaged across three replicates. The standard deviation for each result is shown in brackets after the result.

[4] = test system: Setaria Viridis (SETVI); experiment: as above; assay type: in vivo; settings: pinoxaden 7.5 g/ha + adjuvant 0.2% by volume in spray-tank, mean (standard deviation), 3 replicates
Method: as §1

[5] = test system: Lolium Perenne (LOLPE); experiment: as above; assay type: in vivo; settings: pinoxaden 7.5 g/ha + adjuvant 0.2% by volume in spray-tank, mean (standard deviation), 3 replicates
Method: as §1

[6] = test system: Alopecurus Myosuroides (ALOMY); experiment: as above; assay type: in vivo; settings: pinoxaden 7.5 g/ha + adjuvant 0.2% by volume in spray-tank, mean (standard deviation), 3 replicates
Method: as §1

[7] = test system: Amaranthus Tuberculatus (AMATU); experiment: Glass house adjuvant test with mesotrione, weed kill; assay type: in vivo; settings: mesotrione 45 g/ha + adjuvant 0.2% v/v in spray-tank, mean (standard deviation), 3 replicates
Method: The weed species Polygonum Convolvulus, Digitaria Sanguinalis, Brachiaria Decumbens and Amaranthus Tuberculatus were grown under glass house conditions and sprayed with the herbicide mesotrione at rate of 45 grams of pesticide per hectare. Weeds were treated with the mesotrione in the absence of (E)-but-2-enedioic acid dibutyl ester (as a control) and also with (E)-but-2-enedioic acid dibutyl ester added to the spray-tank at a concentration of 0.2% v/v. After 14 and 21 days the efficacy of the herbicide was assessed based on the percentage of the weeds that had been killed. Three replicates were used in all cases. The performance of the solvent was assessed by averaging the three replicates at each time period and for each weed. The standard deviation for each result is shown in brackets after the average percentage weed kill.

[8] = test system: Brachiaria Decumbens (BRADE); experiment: as above; assay type: in vivo; settings: mesotrione 45 g/ha + adjuvant 0.2% v/v in spray-tank, mean (standard deviation), 3 replicates
[9] = test system: Polygonum Convolvulus (POLCO); experiment: as above; assay type: in vivo; settings: mesotrione 45 g/ha + adjuvant 0.2% v/v in spray-tank, mean (standard deviation), 3 replicates
[10] = Solubility of chlorothalonil in solvents at 20° C.; assay type: physicochemical
[11] = solvent in deionised water, 25° C., contact at least two weeks

In the case of `CCCCOC(=O)/C=C/C(=O)OCCCC` [(E)-But-2-enedioic acid dibutyl ester], the “average percentage weed kill, DIGSA” value ([1]; 14 days after application) is reported as 36.7(2.9) %, the “average percentage weed kill, DIGSA” value ([1]; 21 days after application) is reported as 41.7(7.6) % and the “% water solubility [by weight at 25° C.]” value [2] is reported as 0.04 % by weight. The “average percentage of weeds killed, AVEFA” value ([3]; 14 days after application) was 20(10) %, the “average percentage of weeds killed, AVEFA” value ([3]; 21 days after application) was 16.7(5.8) % and the “average percentage of weeds killed, SETVI” value ([4]; 14 days after application) was 20(0) %. The “average percentage of weeds killed, SETVI” value ([4]; 21 days after application) was 20(10) %, the “average percentage of weeds killed, LOLPE” value ([5]; 14 days after application) was 13.3(5.8) % and the “average percentage of weeds killed, LOLPE” value ([5]; 21 days after application) was 6.7(5.8) %. The “average percentage of weeds killed, ALOMY” value ([6]; 14 days after application) was 20(17.3) %, the “average percentage of weeds killed, ALOMY” value ([6]; 21 days after application) was 33.3(15.3) % and the “average percentage weed kill, AMATU” value ([7]; 14 days after application) was 76.7(5.8) %. The “average percentage weed kill, AMATU” value ([7]; 21 days after application) was 94(3.6) %, the “average percentage weed kill, BRADE” value ([8]; 14 days after application) was 43.3(5.8) % and the “average percentage weed kill, BRADE” value ([8]; 21 days after application) was 40(0) %. For the same molecule, the “average percentage weed kill, POLCO” value ([9]; 14 days after application) was 80(10) % and the “average percentage weed kill, POLCO” value ([9]; 21 days after application) was 80(10) %.
With `CC(=O)c1ccccc1` [Acetophenone (methyl phenyl ketone), methyl phenyl ketone] the “% water solubility [by weight at 25° C.]” value [2] was 0.9 % by weight.
In the case of `OCc1ccccc1` [Benzyl alcohol, benzene methanol, Benzyl alcohol], the “% water solubility [by weight at 25° C.]” value [2] is reported as 4.4 % by weight.
For `C1CCC2CCCCC2C1` (stereo not drawn) [Decalin, decahydronaphthalene], the “% water solubility [by weight at 25° C.]” value [2, 11] was 0.7 % by weight.
For `CCOC(=O)/C=C/C(=O)OCC` [Diethyl fumarate], the “% water solubility [by weight at 25° C.]” value [2] was 0.8 % by weight.
For `C=C(C)[C@H]1CC=C(C)CC1` [Dipentene, limonene], the “% water solubility [by weight at 25° C.]” value [2, 11] was 0.098 % by weight and the “Chlorothalonil solubility in the solvent” value [10] was 0.18 percentage w/w.
With `CCCCCCCCCCCCc1ccccc1` [Dodecylbenzene, 1-phenyldodecane] the “% water solubility [by weight at 25° C.]” value [2] was 0.000026 % by weight.
For `c1ccc2c(c1)CCCC2` [Tetralin, tetrahydronaphthalene], the “% water solubility [by weight at 25° C.]” value [2, 11] was 0.18 % by weight.
In the case of `CC(=O)OCC(COC(C)=O)OC(C)=O` [Triacetin (glycerol triacetate), glycerol triacetate], the “% water solubility [by weight at 25° C.]” value [2] is reported as 7.7 % by weight.
With “dimethyl heptamide [Genagen ™ 4166 (dimethyl heptamide)]” the “% water solubility [by weight at 25° C.]” value [2, 11] was 0.7 % by weight.
